Data set [1] concerns Phytophthora infestans. The data set is classed as in vivo, Phytophthora infestans on tomato. The note with it: preventive spray on young tomato plants, 500 ppm of active ingredient, inoculated one day after treatment, evaluated 7 days after inoculation; 0% = untreated control, 100% = no disease.
Data set [2] is described as follows: logP of the compounds of table 1. The data set is classed as physicochemical.

This passage reports Efficacy and logP results from US9000012B2 (priority 2009, dated 2015).

SMILES strings stand for the structures.

What is called logP is the decadic logarithm of the partition coefficient of the neutral form, usually between octanol and water.

`CN(C)C(=O)C(=NOCc1cccc(NC(=O)C2COc3ccccc3O2)n1)c1ccccc1` (stereo not drawn) [Example 109] came in with an Efficacy in data set [1] of 98%. Moreover, the logP in data set [2] was determined as 3.42.
As for `CN(C)C(=O)C(=NOCc1cccc(NC(=O)C(F)(F)Oc2ccccc2)n1)c1ccccc1` [Example 110], the Efficacy in data set [1] was 70%. Further, the logP in data set [2] was 3.73.
In the case of `CC(Oc1ccccc1)C(=O)Nc1cccc(CON=C(C(=O)N(C)C)c2ccccc2)n1` (stereo not drawn) [Example 111], the Efficacy in data set [1] was found to be 92%. This molecule also yielded a logP in data set [2] of 3.50.
For `COc1ccc(CC(=O)Nc2cccc(CON=C(C(=O)N(C)C)c3ccccc3)n2)cc1` [Example 112], in that order: 100% and 3.00.
The like results for `CN(C)C(=O)C(=NOCc1csc(NC(=O)C2COc3ccccc3O2)n1)c1ccccc1` (stereo not drawn) [Example 129] were, in that order, 92% and 3.15.
`CC(Oc1ccccc1)C(=O)Nc1nc(CON=C(C(=O)N(C)C)c2ccccc2)cs1` (stereo not drawn) [Example 130] registered an Efficacy in data set [1] of 100%. In data set [2], this molecule returned a lipophilicity (logP) of 3.21.
